SMILES strings stand for the structures. Values after ≈ are worked out from the molar mass of the structure shown.

As usually defined, the IC50 is the concentration at which inhibition is half-maximal.

For assay [1], the system named is Plasmodium falciparum. Nature of the assay: Antiplasmodial activity against chloroquine-resistant Plasmodium falciparum Dd2. It is filed as functional, organism-based.
A further assay has as its system Vero. As to the kind of experiment: Cytotoxicity against african green monkey Vero cells by MTT assay. The class given is cell-based. To be noted: Chlorocebus sabaeus. (In general: Formazan colour is commonly taken as a measure of viable cells.)
The test system of assay [2] is Plasmodium falciparum. As to the kind of experiment: Antiplasmodial activity against chloroquine-susceptible Plasmodium falciparum D10. The class given is functional, organism-based.

In the case of `O=c1c(O)c(-c2ccc(O)c(O)c2)oc2cc(O)cc(O)c12` [QUERCETIN], the IC50 was determined as 2.4 µg/mL (≈ 7.94 µM) with Plasmodium falciparum [1] and 110 µg/mL (≈ 364 µM) in the assay on Vero. With `COc1ccc(-c2oc3cc(O)cc(O)c3c(=O)c2O)cc1O` [TAMARIXETIN], the IC50 in the assay on Plasmodium falciparum [2] is 1.1 µg/mL (≈ 3.48 µM); in the assay with Vero it was 170 µg/mL (≈ 538 µM). In the assay with Vero, `CCN(CC)CCCC(C)Nc1ccnc2cc(Cl)ccc12` (stereo not given) [CHLOROQUINE] showed a half-maximal inhibitory concentration (IC50) of 48.5 µg/mL (≈ 152 µM).

These data come from ChEMBL document CHEMBL1154131, “Bioactive diterpenes and other constituents of Croton steenkampianus” (J Nat Prod, 2008).
